Measured values taken from PMC8536124 (International Journal of Molecular Sciences, 2021).

Tests used:
A549/ATCC = test system: A549/ATCC; set-up: method as in earlier work; conditions: cited from earlier work
EKVX = test system: EKVX; set-up: method as in earlier work; conditions: cited from earlier work
HOP-62 = test system: HOP-62; set-up: method as in earlier work; conditions: cited from earlier work
HOP-92 = test system: HOP-92; set-up: method as in earlier work; conditions: cited from earlier work
NCI-H226 = test system: NCI-H226; set-up: method as in earlier work; conditions: cited from earlier work
NCI-H23 = test system: NCI-H23; set-up: method as in earlier work; conditions: cited from earlier work
NCI-H460 = test system: NCI-H460; set-up: method as in earlier work; conditions: cited from earlier work
NCI-H522 = test system: NCI-H522; set-up: method as in earlier work; conditions: cited from earlier work
NSC lung cancer = test system: NSC lung cancer; set-up: method as in earlier work; conditions: NSC lung cancer subpanel; read-out: GI50 MG_MID; cited from earlier work
COLO 205 = test system: COLO 205; set-up: method as in earlier work; conditions: cited from earlier work
HCC-2998 = test system: HCC-2998; set-up: method as in earlier work; conditions: cited from earlier work
HCT-116 = test system: HCT-116; set-up: method as in earlier work; conditions: cited from earlier work
HCT-15 = test system: HCT-15; set-up: method as in earlier work; conditions: cited from earlier work
HT29 = test system: HT29; set-up: method as in earlier work; conditions: cited from earlier work
KM12 = test system: KM12; set-up: method as in earlier work; conditions: cited from earlier work
SW-620 = test system: SW-620; set-up: method as in earlier work; conditions: cited from earlier work
SF-268 = test system: SF-268; set-up: method as in earlier work; conditions: cited from earlier work
SF-295 = test system: SF-295; set-up: method as in earlier work; conditions: cited from earlier work
SF-539 = test system: SF-539; set-up: method as in earlier work; conditions: cited from earlier work
SNB-19 = test system: SNB-19; set-up: method as in earlier work; conditions: cited from earlier work
SNB-75 = test system: SNB-75; set-up: method as in earlier work; conditions: cited from earlier work
U251 = test system: U251; set-up: method as in earlier work; conditions: cited from earlier work
CNS cancer = test system: CNS cancer; set-up: method as in earlier work; conditions: CNS cancer subpanel; read-out: GI50 MG_MID; cited from earlier work
LOX IMVI = test system: LOX IMVI; set-up: method as in earlier work; conditions: cited from earlier work
MALME-3M = test system: MALME-3M; set-up: method as in earlier work; conditions: cited from earlier work
M14 = test system: M14; set-up: method as in earlier work; conditions: cited from earlier work
MDA-MB-435 = test system: MDA-MB-435; set-up: method as in earlier work; conditions: cited from earlier work
SK-MEL-2 = test system: SK-MEL-2; set-up: method as in earlier work; conditions: cited from earlier work
SK-MEL-28 = test system: SK-MEL-28; set-up: method as in earlier work; conditions: cited from earlier work
SK-MEL-5 = test system: SK-MEL-5; set-up: method as in earlier work; conditions: cited from earlier work
UACC-257 = test system: UACC-257; set-up: method as in earlier work; conditions: cited from earlier work
UACC-62 = test system: UACC-62; set-up: method as in earlier work; conditions: cited from earlier work
Melanoma = test system: Melanoma; set-up: method as in earlier work; conditions: Melanoma subpanel; read-out: GI50 MG_MID; cited from earlier work
IGROV1 = test system: IGROV1; set-up: method as in earlier work; conditions: cited from earlier work
OVCAR-3 = test system: OVCAR-3; set-up: method as in earlier work; conditions: cited from earlier work
OVCAR-4 = test system: OVCAR-4; set-up: method as in earlier work; conditions: cited from earlier work
OVCAR-5 = test system: OVCAR-5; set-up: method as in earlier work; conditions: cited from earlier work
OVCAR-8 = test system: OVCAR-8; set-up: method as in earlier work; conditions: cited from earlier work
NCI/ADR-RES = test system: NCI/ADR-RES; set-up: method as in earlier work; conditions: cited from earlier work
SK-OV-3 = test system: SK-OV-3; set-up: method as in earlier work; conditions: cited from earlier work
Ovarian cancer = test system: Ovarian cancer; set-up: method as in earlier work; conditions: Ovarian cancer subpanel; read-out: GI50 MG_MID; cited from earlier work
786-0 = test system: 786-0; set-up: method as in earlier work; conditions: cited from earlier work
A498 = test system: A498; set-up: method as in earlier work; conditions: cited from earlier work
ACHN = test system: ACHN; set-up: method as in earlier work; conditions: cited from earlier work
CAKI-1 = test system: CAKI-1; set-up: method as in earlier work; conditions: cited from earlier work
RXF 393 = test system: RXF 393; set-up: method as in earlier work; conditions: cited from earlier work
SN12C = test system: SN12C; set-up: method as in earlier work; conditions: cited from earlier work
UO-31 = test system: UO-31; set-up: method as in earlier work; conditions: cited from earlier work
Renal Cancer = test system: Renal Cancer; set-up: method as in earlier work; conditions: Renal cancer subpanel; read-out: GI50 MG_MID; cited from earlier work
PC-3 = test system: PC-3; set-up: method as in earlier work; conditions: cited from earlier work
DU-145 = test system: DU-145; set-up: method as in earlier work; conditions: cited from earlier work
Prostate cancer = test system: Prostate cancer; set-up: method as in earlier work; conditions: Prostate cancer subpanel; read-out: GI50 MG_MID; cited from earlier work
MCF7 = test system: MCF7; set-up: method as in earlier work; conditions: cited from earlier work
MDA-MB-31/ATCC = test system: MDA-MB-31/ATCC; set-up: method as in earlier work; conditions: cited from earlier work
HS 578T = test system: HS 578T; set-up: method as in earlier work; conditions: cited from earlier work
BT-549 = test system: BT-549; set-up: method as in earlier work; conditions: cited from earlier work
T-47D = test system: T-47D; set-up: method as in earlier work; conditions: cited from earlier work
MDA-MB-468 = test system: MDA-MB-468; set-up: method as in earlier work; conditions: cited from earlier work
Breast cancer = test system: Breast cancer; set-up: method as in earlier work; conditions: Breast cancer subpanel; read-out: GI50 MG_MID; cited from earlier work
[1] = test system: NCI-60 cancer cell line panel; set-up: method as in earlier work; conditions: mean graph midpoint, full panel; read-out: GI50 MG_MID60; cited from earlier work
chorioallantoic membrane = conditions: in vivo
Excerpt: In this assay, the irritation potential may range from 0 to 21, with 0 being non-irritant and 21 being the most irritant. […] The irritation score was established according to Luepke scale: 0–0.9 indicates non-irritant, 1–4.9 indicates weakly irritant, 5–8.9 indicates moderately irritant, while 9–21 means strongly irritant (Table 6) [88, 89].
The in vivo Hen’s Egg Chorioallantoic Membrane Test (HET-CAM) assay determines a potential irritant effect on the vascular plexus of the chorioallantoic membrane [94]. The HET-CAM method was carried out following ICCVAM recommendations published in November 2016 in Appendix G and adapted to our conditions [88, 95, 96]. Thus, a volume of 300 µL of control or test solution was applied and the modifications produced at the CAM level were monitored by means of stereomicroscopy (Discovery 8 Stereomicroscope, Zeiss), registering significant images (Axio CAM 105 color, Zeiss), before application after 5 min of contact with the samples. All images were processed using Zeiss ZEN software, Gimp 2.8, and ImageJ software.
Negative control was represented by distilled water and solvent control DMSO 0.5%, and positive control by sodium lauryl sulphate (SLS) 0.5% in distillate water. The test substances were tested in concentrations of 1 µM.
Finally, the following reactions were: hemorrhage—H (blood vessel bleeding), vascular lysis—L (disintegration of blood vessels), coagulation—C (intra- or extra-vascular protein denaturizing). A variety of analysis methods may be used to assess irritancy potential of test substances. One analysis method that has been used extensively is an irritation score (IS). The formula used to generate an IS value is:(1) IS=5×301−Sec H/300+7×300−Sec L/300+9×301−Sec C/300 where: H = hemorrhage; L = vessel lysis; C = coagulation; hemorrhage time (Sec H) = onset of hemorrhage reactions on CAM (in seconds); lysis time (Sec L) = onset of vessel lysis on CAM (in seconds); coagulation time (Sec C) = onset of coagulation formation on CAM (in seconds). Means values are obtained. […] The IS values range on a scale between 0 and 21.

For `COc1cccc2c1C(=O)c1c(O)c3c(c(O)c1C2=O)C[C@@](O)(C(=O)CO)C[C@@H]3O[C@H]1C[C@H](N)[C@H](O)[C@H](C)O1` [DRB, doxorubicin], the GI50 (A549/ATCC) is listed as 0.06 µM, the GI50 (EKVX) is listed as 0.41 µM and the GI50 (HOP-62) is listed as 0.07 µM. The GI50 (HOP-92) was 0.1 µM, the GI50 (NCI-H226) was 0.05 µM and the GI50 (NCI-H23) was 0.15 µM. For the same compound, the GI50 (NCI-H460) was 0.02 µM, the GI50 (NCI-H522) was 0.03 µM and the GI50 (NSC lung cancer) was 0.11 µM. The GI50 (COLO 205) was 0.18 µM, the GI50 (HCC-2998) was 0.26 µM and the GI50 (HCT-116) was 0.08 µM. The GI50 (HCT-15) was 6.46 µM, the GI50 (HT29) was 0.12 µM and the GI50 (KM12) was 0.27 µM. For the same compound, the GI50 (SW-620) was 0.09 µM, the GI50 (SF-268) was 0.1 µM and the GI50 (SF-295) was 0.1 µM. The GI50 (SF-539) was 0.12 µM, the GI50 (SNB-19) was 0.04 µM and the GI50 (SNB-75) was 0.07 µM. For the same compound, the GI50 (U251) was 0.04 µM, the GI50 (CNS cancer) was 0.08 µM and the GI50 (LOX IMVI) was 0.07 µM. The GI50 (MALME-3M) was 0.12 µM, the GI50 (M14) was 0.18 µM and the GI50 (MDA-MB-435) was 0.25 µM. The GI50 (SK-MEL-2) was 0.17 µM, the GI50 (SK-MEL-28) was 0.21 µM and the GI50 (SK-MEL-5) was 0.08 µM. The GI50 (UACC-257) was 0.14 µM, the GI50 (UACC-62) was 0.12 µM and the GI50 (Melanoma) was 0.15 µM. The GI50 (IGROV1) was 0.17 µM, the GI50 (OVCAR-3) was 0.39 µM and the GI50 (OVCAR-4) was 0.37 µM. The GI50 (OVCAR-5) was 0.41 µM, the GI50 (OVCAR-8) was 0.1 µM and the GI50 (NCI/ADR-RES) was 7.16 µM. For the same compound, the GI50 (SK-OV-3) was 0.22 µM, the GI50 (Ovarian cancer) was 1.26 µM and the GI50 (786-0) was 0.13 µM. For the same compound, the GI50 (A498) was 0.1 µM, the GI50 (ACHN) was 0.08 µM and the GI50 (CAKI-1) was 0.95 µM. For the same compound, the GI50 (RXF 393) was 0.1 µM, the GI50 (SN12C) was 0.07 µM and the GI50 (UO-31) was 0.49 µM. The GI50 (Renal Cancer) was 0.27 µM, the GI50 (PC-3) was 0.32 µM and the GI50 (DU-145) was 0.11 µM. For the same compound, the GI50 (Prostate cancer) was 0.21 µM, the GI50 (MCF7) was 0.03 µM and the GI50 (MDA-MB-31/ATCC) was 0.51 µM. For the same compound, the GI50 (HS 578T) was 0.33 µM, the GI50 (BT-549) was 0.23 µM and the GI50 (T-47D) was 0.06 µM. For the same compound, the GI50 (MDA-MB-468) was 0.05 µM, the GI50 (Breast cancer) was 0.19 µM and the GI50 [1] was 0.38 µM.
In the case of `CCCCCCCCCCCCOS(=O)(=O)[O-].[Na+]` [SLS 0.5%, sodium laurylsulphate], the “Type of Effect” value (chorioallantoic membrane) is reported as “Strong irritant”.
